# Assay results from patent publication US20120245137A1 (Zalicus Pharmaceuticals Ltd., priority 2009, published 2012).
# Like-named read-outs stand apart in the source and are kept apart here.
# Tests used:
# Type in all cases: cell-based
# [1] = biological target: T-type calcium channel (Homo sapiens, UniProt O43497); test: T-type channel blocking, FLIPR data (Table 6); details: CAv3.1
# Description: (§1) Another method, high-throughput spectrophotometric assay, utilizes loading of the cell lines with a fluorescent dye sensitive to intracellular calcium concentration and subsequent examination of the effects of compounds on the ability of depolarization by potassium chloride or other means to alter intracellular calcium levels.
# [2] = biological target: T-type calcium channel (Homo sapiens, UniProt O95180); test: T-type channel blocking, FLIPR data (Table 6); details: for CAv3.2 IC50 Ratio closed/inact.: CAv3.2, ratio closed/inact.
# Description: as §1
# [3] = biological target: Human Cav 2.2 channels (Homo sapiens, UniProt Q00975); test: Fluorescent assay for CaV2.2 channels using potassium depolarization (VIPR/FLIPR); details: FLIPR data
# Procedure, shortened: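 Fluo-4 calcium fluorescence (480/535 nm) was recorded on VIPR or FLIPR after depolarization to 70 mM final potassium. Before this, cells were preincubated 30 min at 25 °C with compound in 4–30 mM potassium, so that state-dependent block could be assessed; the cells were HEK293 coexpressing Cav2.2, α2δ, β and Kir2.3.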
# [4] = biological target: CAv1.2 (Homo sapiens, UniProt Q13936); test: L-type (CAv1.2) channel blocking, FLIPR data (Table 6)
# CAv1.2, sequence (Q13936 whole entry): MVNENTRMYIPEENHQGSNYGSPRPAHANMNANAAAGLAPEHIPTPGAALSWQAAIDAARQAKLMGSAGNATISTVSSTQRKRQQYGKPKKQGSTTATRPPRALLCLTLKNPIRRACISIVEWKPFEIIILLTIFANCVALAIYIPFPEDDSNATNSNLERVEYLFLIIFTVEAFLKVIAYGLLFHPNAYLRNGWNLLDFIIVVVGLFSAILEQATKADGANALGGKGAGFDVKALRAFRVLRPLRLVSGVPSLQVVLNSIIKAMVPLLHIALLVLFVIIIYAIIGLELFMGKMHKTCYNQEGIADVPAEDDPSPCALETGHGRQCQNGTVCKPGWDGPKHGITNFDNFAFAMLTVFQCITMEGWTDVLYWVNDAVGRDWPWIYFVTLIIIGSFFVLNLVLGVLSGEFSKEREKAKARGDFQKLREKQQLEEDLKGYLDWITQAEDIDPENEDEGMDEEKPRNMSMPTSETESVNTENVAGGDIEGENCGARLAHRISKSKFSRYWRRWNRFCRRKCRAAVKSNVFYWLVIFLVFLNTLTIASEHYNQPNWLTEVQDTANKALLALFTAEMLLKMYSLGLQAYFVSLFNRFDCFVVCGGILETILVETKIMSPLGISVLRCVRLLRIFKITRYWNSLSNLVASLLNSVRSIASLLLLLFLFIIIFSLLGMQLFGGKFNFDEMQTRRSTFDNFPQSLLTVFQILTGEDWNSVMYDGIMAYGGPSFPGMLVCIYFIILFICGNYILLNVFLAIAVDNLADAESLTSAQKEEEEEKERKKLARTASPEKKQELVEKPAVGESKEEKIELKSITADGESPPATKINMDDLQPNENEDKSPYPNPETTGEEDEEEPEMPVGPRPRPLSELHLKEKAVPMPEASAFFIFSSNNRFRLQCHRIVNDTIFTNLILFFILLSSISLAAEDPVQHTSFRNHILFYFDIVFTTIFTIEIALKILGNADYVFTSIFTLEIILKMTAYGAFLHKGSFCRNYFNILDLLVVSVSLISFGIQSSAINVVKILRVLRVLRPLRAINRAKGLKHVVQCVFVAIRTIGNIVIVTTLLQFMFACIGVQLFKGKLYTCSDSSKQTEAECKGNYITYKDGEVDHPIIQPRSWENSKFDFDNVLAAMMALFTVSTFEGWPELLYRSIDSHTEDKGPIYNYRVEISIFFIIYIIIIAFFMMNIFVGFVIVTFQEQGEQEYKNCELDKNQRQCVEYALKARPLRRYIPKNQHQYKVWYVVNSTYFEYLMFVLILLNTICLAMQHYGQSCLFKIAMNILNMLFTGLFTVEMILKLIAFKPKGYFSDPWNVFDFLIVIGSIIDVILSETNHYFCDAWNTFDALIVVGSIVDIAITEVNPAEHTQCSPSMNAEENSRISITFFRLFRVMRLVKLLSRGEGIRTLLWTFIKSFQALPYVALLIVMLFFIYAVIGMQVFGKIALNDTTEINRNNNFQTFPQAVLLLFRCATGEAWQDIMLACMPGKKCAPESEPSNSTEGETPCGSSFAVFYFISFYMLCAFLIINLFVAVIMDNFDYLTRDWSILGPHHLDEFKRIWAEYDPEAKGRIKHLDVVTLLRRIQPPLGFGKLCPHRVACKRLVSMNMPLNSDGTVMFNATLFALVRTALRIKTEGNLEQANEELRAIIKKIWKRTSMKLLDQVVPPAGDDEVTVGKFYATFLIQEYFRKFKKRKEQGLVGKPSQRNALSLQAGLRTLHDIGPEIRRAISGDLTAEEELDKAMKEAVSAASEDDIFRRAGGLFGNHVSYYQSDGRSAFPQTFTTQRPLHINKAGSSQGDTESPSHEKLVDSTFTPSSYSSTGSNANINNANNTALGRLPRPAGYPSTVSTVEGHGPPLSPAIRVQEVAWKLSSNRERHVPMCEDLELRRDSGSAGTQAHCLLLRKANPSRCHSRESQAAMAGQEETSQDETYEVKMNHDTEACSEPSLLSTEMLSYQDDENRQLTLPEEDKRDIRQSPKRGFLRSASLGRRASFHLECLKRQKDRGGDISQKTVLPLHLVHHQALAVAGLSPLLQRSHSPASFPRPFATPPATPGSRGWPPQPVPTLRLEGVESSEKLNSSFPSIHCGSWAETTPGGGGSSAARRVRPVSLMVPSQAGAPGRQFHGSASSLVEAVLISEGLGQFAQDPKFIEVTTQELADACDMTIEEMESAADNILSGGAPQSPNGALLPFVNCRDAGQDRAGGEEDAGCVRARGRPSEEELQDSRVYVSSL
# CAv1.2, sequence (P54289 25-1103 partner): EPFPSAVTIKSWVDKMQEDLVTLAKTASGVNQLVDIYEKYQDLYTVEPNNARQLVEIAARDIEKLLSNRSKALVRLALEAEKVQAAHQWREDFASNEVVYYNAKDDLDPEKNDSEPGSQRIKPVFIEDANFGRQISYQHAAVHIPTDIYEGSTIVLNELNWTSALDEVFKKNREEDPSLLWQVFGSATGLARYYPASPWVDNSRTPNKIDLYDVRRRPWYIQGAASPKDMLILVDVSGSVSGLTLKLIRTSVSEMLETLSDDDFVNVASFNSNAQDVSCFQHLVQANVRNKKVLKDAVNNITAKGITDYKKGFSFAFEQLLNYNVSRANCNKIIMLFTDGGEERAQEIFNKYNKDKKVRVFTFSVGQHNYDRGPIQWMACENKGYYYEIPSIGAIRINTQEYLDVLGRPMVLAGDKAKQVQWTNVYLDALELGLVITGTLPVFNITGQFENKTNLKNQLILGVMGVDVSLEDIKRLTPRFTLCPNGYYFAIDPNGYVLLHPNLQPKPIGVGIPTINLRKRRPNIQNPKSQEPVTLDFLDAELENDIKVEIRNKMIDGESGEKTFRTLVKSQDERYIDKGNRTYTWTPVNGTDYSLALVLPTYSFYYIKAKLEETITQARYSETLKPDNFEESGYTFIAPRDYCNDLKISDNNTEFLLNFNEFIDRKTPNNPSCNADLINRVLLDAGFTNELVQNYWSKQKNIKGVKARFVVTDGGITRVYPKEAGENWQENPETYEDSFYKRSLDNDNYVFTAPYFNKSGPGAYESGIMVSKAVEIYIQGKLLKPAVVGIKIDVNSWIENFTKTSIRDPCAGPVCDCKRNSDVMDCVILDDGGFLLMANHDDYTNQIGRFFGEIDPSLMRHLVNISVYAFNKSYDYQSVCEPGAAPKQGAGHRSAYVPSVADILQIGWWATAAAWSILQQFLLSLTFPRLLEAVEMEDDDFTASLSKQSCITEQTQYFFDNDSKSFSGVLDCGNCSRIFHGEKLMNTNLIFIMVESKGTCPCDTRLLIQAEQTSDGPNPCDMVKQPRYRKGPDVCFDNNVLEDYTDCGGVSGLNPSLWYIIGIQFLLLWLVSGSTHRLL
# CAv1.2, sequence (Q08289 whole entry partner): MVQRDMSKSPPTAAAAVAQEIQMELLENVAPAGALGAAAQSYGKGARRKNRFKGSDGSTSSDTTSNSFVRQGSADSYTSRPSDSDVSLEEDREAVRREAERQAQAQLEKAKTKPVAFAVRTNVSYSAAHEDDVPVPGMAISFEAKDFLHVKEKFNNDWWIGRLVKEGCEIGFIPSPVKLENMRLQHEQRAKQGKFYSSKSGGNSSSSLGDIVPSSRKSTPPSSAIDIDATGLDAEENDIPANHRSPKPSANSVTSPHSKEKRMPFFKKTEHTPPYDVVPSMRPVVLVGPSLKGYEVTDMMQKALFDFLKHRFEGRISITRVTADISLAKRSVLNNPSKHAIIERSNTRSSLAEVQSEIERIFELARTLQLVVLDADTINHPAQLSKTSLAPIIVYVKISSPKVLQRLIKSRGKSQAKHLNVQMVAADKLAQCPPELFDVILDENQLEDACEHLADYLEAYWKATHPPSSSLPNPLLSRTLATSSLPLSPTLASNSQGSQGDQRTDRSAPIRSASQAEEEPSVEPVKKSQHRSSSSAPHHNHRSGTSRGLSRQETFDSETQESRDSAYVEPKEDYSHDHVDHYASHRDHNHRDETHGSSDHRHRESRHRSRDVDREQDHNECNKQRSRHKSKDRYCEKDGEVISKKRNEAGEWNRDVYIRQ
# [5] = CAv3.2, closed state, read-out: CAv3.2 IC50 Closed
# [6] = CAv3.2, inactivated state, read-out: CAv3.2 IC50 Inact.
# [7] = closed state, read-out: CAv2.2 IC50 Closed
# [8] = inactivated state, read-out: CAv2.2 IC50 Inact.
# [9] = closed state, read-out: CAv1.2 IC50 Closed
# [10] = inactivated state, read-out: CAv1.2 IC50 Inact.
SMILES,IC50 [1] [µM],"IC50 [2, 5] [µM]","IC50 [2, 6] [µM]",CAv3.2 IC50 Ratio closed/inact. [2],"IC50 [3, 7] [nM]","IC50 [3, 8] [nM]",CAv2.2 IC50 Ratio closed/inact. [3],"IC50 [4, 9] [µM]","IC50 [4, 10] [µM]",CAv1.2 IC50 Ratio closed/inact. [4]
CC(C)(C[C@H]1C[C@@H](NC(=O)[C@H]2CCCC[C@@H]2N)C1)S(=O)(=O)c1cccc(C(F)(F)F)c1 [Compound 745],≥ 10,≥ 10,10,1,4220,1210,3.5,8.68,≥ 10,0.9
O=C(c1ccc(OCC(F)(F)F)nc1)N1CC(CS(=O)(=O)c2cc(F)cc(C(F)(F)F)c2)C1 [Compound 747],≥ 10,9.95,5.57,1.8,10000,5050,2,≥ 10,8.8,1.1
Cn1nc(C(F)(F)F)cc1C(=O)N1CC(CS(=O)(=O)c2cc(F)cc(C(F)(F)F)c2)C1 [Compound 748],≥ 10,≥ 10,8.42,1.2,10000,5240,1.9,≥ 10,≥ 10,–
CC(C)([C@H]1C[C@H](CNc2ccc(F)c(Cl)c2)C1)S(=O)(=O)c1cccc(C(F)(F)F)c1 [Compound 750],3.37,≥ 10,0.74,13.5,2330,170,13.7,3.42,0.99,3.5
CC(C)([C@H]1C[C@H](CNc2ccc(Cl)c(F)c2)C1)S(=O)(=O)c1cccc(C(F)(F)F)c1 [Compound 751],4.53,≥ 10,1.48,6.8,3930,300,13.1,4.72,1.35,3.5
CC(C)([C@H]1C[C@H](CNc2cc(C(F)(F)F)n[nH]2)C1)S(=O)(=O)c1cccc(C(F)(F)F)c1 [Compound 752],4.91,5.86,1.88,3.1,3700,280,13.2,8.6,2.81,3.1
CC(C)([C@H]1C[C@@H](CNc2ccc(F)c(Cl)c2)C1)S(=O)(=O)c1cccc(C(F)(F)F)c1 [Compound 753],4.45,≥ 10,1.63,6.1,3800,330,11.5,7.42,1.51,4.9
CC(C)([C@H]1C[C@@H](CNc2cc(C(F)(F)F)n[nH]2)C1)S(=O)(=O)c1cccc(C(F)(F)F)c1 [Compound 755],5.25,≥ 10,2.49,4,4480,750,6,8.17,3.88,2.1
CC(C)([C@H]1C[C@@H](C(=O)Nc2ccc(C(F)(F)F)cc2)C1)S(=O)(=O)c1cccc(C(F)(F)F)c1 [Compound 756],1.59,3.52,1.2,2.9,3900,390,10,4.19,1.37,3.1
CC(C)([C@H]1C[C@@H](C(=O)Nc2cc(C(F)(F)F)n[nH]2)C1)S(=O)(=O)c1cccc(C(F)(F)F)c1 [Compound 757],2.22,6.06,2.29,2.6,5790,550,10.5,≥ 10,5.39,1.9
CC(C)([C@H]1C[C@@H](C(=O)Nc2ccc(C(F)(F)F)cn2)C1)S(=O)(=O)c1cccc(C(F)(F)F)c1 [Compound 758],2.13,4.06,1.97,2.1,2540,390,6.5,3.56,1.88,1.9
CC(C)([C@H]1C[C@@H](C(=O)Nc2ccc(C(F)(F)F)nc2)C1)S(=O)(=O)c1cccc(C(F)(F)F)c1 [Compound 759],2.27,3.55,2.07,1.7,3670,480,7.6,5.1,2.18,2.3
CC(C)([C@H]1C[C@H](C(=O)Nc2ccc(C(F)(F)F)nc2)C1)S(=O)(=O)c1cccc(C(F)(F)F)c1 [Compound 760],2.8,4.62,0.73,6.3,2870,190,15.1,≥ 10,3.55,2.8
CC(C)([C@H]1C[C@H](C(=O)Nc2ccc(Cl)cn2)C1)S(=O)(=O)c1cccc(C(F)(F)F)c1 [Compound 761],4.19,≥ 10,1.71,5.8,1600,150,10.7,8.54,4.61,1.9
CC(C)([C@H]1C[C@H](C(=O)Nc2cc(C(F)(F)F)n[nH]2)C1)S(=O)(=O)c1cccc(C(F)(F)F)c1 [Compound 762],2.63,≥ 10,1.84,5.4,6260,390,16.1,≥ 10,7.23,1.4
CC(C)([C@H]1C[C@H](C(=O)Nc2ccc(C(F)(F)F)cc2Cl)C1)S(=O)(=O)c1cccc(C(F)(F)F)c1 [Compound 763],6.44,7.02,0.96,7.3,2040,270,7.6,≥ 10,2.19,4.6
CC(C)([C@H]1C[C@H](C(=O)NCc2ccc(Oc3ccccc3)cc2)C1)S(=O)(=O)c1cccc(C(F)(F)F)c1 [Compound 764],0.78,2.9,0.43,6.7,1020,110,9.3,3.24,0.83,3.9
CC(C)([C@H]1C[C@H](C(=O)Nc2ccc(C(F)(F)F)cc2)C1)S(=O)(=O)c1cccc(C(F)(F)F)c1 [Compound 765],2.01,4.6,1.5,3.1,3400,420,8.1,6.71,2.25,3
CC(C)([C@H]1C[C@H](C(=O)Nc2ccc(C(F)(F)F)cn2)C1)S(=O)(=O)c1cccc(C(F)(F)F)c1 [Compound 766],2.65,4.2,2.38,1.8,1690,130,13,3.72,2.07,1.8
CC(C)([C@H]1C[C@H](C(=O)NCc2ccc(C(F)(F)F)nc2)C1)S(=O)(=O)c1cccc(C(F)(F)F)c1 [Compound 767],≥ 10,≥ 10,9.57,1,5370,570,9.4,≥ 10,5.14,1.9
Cc1nc(C(F)(F)F)ccc1NC(=O)[C@H]1C[C@H](C(C)(C)S(=O)(=O)c2cccc(C(F)(F)F)c2)C1 [Compound 768],4.57,6.82,3.56,1.9,4170,390,10.7,≥ 10,4.42,2.3
Cn1nc(C(F)(F)F)cc1NC(=O)[C@H]1C[C@H](C(C)(C)S(=O)(=O)c2cccc(C(F)(F)F)c2)C1 [Compound 769],4.72,5.36,3.78,1.4,4980,340,14.6,8.49,1.47,5.8
